Measurements as given in US8871933B2, “Purified pyrroloquinolinyl-pyrrolidine-2,5-dione compositions and methods for preparing and using same” (ArQule, Inc., priority 2009, dated 2014).

Key:
[1] = system: human pancreatic cancer MIA PaCa2; test: Human pancreatic cancer xenograft; assay type: in vivo; conditions: monotherapy
Description: (§1) The efficacy of (−)-trans-3-(5,6-dihydro-4H-pyrrolo[3,2,1-ij]quinolin-1-yl)-4-(1H-indol-3-yl)pyrrolidine-2,5-dione was also tested in xenograft models with several other cancer cell lines: human pancreatic cancer MIA PaCa2 (FIG. 9, Panel B), human prostate cancer PC3 (FIG. 9, Panel C) and human gastric cancer MKN45 (FIG. 9, Panel D). The cells were treated with (−)-trans-3-(5,6-dihydro-4H-pyrrolo[3,2,1-ij]quinolin-1-yl)-4-(1H-indol-3-yl)pyrrolidine-2,5-dione as a monotherapy at indicated concentrations.

[2] = system: human prostate cancer PC3; test: Human prostate cancer xenograft; assay type: in vivo; conditions: monotherapy
Description: as §1

Pim-1 = Pim-1 (Homo sapiens, UniProt P11309); test: Kinase panel inhibition, Pim-1; assay type: biochemical
Chain of Pim-1 (P11309 whole entry): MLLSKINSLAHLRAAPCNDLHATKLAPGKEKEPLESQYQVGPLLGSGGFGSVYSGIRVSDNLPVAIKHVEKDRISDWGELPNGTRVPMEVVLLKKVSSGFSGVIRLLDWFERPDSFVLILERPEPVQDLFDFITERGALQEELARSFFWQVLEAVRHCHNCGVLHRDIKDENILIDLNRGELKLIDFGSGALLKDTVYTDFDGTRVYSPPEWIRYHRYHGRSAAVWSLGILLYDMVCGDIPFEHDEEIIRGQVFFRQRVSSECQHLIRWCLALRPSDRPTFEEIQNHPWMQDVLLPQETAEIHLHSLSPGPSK
Description: (−)-trans-3-(5,6-dihydro-4H-pyrrolo[3,2,1-ij]quinolin-1-yl)-4-(1H-indol-3-yl)pyrrolidine-2,5-dione was assessed for its activity to inhibit a large panel (n=230) of human kinases.

c-Met = c-Met (Homo sapiens, UniProt P08581); test: c-Met phosphorylation in MDA-MB-231 cells, basal and HGF-induced (Western blot); assay type: cell-based; set-up: Whole cell extracts were prepared in lysis buffer; endogenous in cells; host or cells: MDA-MB-231; conditions: serum-deprived 16 hours, 100 ng/ml HGF/SF for 10 minutes
Chain of c-Met (P08581 25-1390): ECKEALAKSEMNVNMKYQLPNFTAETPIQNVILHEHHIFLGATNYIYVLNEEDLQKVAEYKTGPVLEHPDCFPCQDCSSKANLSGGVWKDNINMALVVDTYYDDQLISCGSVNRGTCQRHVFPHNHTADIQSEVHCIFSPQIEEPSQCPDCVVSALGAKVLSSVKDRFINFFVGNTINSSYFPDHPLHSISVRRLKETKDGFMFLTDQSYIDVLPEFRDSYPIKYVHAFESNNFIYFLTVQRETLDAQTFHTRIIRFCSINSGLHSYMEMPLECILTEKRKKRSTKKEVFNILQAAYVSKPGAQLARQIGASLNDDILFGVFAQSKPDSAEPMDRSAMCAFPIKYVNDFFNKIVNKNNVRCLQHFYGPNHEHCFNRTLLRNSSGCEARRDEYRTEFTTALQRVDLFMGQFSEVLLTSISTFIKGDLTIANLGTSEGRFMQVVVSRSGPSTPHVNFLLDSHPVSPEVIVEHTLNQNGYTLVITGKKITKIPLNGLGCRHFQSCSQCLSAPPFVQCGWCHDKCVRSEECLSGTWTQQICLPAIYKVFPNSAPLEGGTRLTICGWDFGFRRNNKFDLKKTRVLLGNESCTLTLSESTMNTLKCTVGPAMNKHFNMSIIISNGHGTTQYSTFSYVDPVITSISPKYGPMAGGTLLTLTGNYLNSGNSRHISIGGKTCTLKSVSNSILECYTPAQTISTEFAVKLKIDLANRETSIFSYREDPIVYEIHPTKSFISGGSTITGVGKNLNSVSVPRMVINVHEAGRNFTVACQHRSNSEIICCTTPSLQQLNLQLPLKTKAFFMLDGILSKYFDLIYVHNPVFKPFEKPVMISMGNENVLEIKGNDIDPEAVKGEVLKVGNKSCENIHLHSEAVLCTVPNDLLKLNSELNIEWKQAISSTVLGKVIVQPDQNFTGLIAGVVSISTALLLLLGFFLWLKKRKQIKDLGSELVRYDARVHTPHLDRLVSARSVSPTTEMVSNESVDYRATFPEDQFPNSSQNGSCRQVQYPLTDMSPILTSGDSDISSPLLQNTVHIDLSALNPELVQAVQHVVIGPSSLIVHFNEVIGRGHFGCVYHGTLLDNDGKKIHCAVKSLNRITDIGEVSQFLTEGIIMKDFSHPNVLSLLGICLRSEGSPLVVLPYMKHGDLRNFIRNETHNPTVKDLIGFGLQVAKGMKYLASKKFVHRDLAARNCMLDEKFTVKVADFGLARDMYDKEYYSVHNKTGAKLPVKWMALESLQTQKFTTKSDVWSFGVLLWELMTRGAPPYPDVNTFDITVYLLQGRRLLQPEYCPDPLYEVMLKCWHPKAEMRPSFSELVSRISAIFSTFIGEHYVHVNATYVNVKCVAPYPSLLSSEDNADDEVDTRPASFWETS
Description: MDA-MB-231 cells were serum-deprived overnight (16 hours) in the absence or in the presence of the indicated concentrations of the separate enantiomers (+)-trans-3-(5,6-dihydro-4H-pyrrolo[3,2,1-ij]quinolin-1-yl)-4-(1H-indol-3-yl)pyrrolidine-2,5-dione and (−)-trans-3-(5,6-dihydro-4H-pyrrolo[3,2,1-ij]quinolin-1-yl)-4-(1H-indol-3-yl)pyrrolidine-2,5-dione. Cells were treated with 100 ng/ml recombinant human Hepatocyte Growth Factor/Scatter Factor (HGF/SF) (R&D Systems #294-HG) for 10 minutes. Whole cell extracts were prepared in lysis buffer (20 mM Tris-HCl pH 7.5, 150 mM NaCl, 1 mM Na2EDTA, 1 mM EGTA, 1% Triton X-100, 2.5 mM sodium pyrophosphate, 1 mM beta-glycerophosphate, 1 mM Na3VO4, 1 μg/ml leupeptin, 1 mM phenylmethylsulfonyl fluoride) and sonicated. Protein concentration was measured by Bradford assay using the BioRad reagent (BioRad, Hercules, Calif.), according to the manufacturer's directions. Samples ([…] of protein) were resolved by 8% SDS-PAGE under reducing conditions and transferred onto a PVDF membrane (BioRad). […] Proteins were detected by incubation overnight at 4° C. in TBS-T with 5% milk and either a polyclonal antibody against phosphorylated c-Met (#3121) or a monoclonal antibody against β-actin (A-5441) (Sigma), which was used as a control for total protein loading. […]

SMILES: O=C1NC(=O)[C@@H](c2cn3c4c(cccc24)CCC3)[C@@H]1c1c[nH]c2ccccc12 (single isomer, unassigned) [(−)-trans-3-(5,6-dihydro-4H-pyrrolo[3,2,1-ij]quinolin-1-yl)-4-(1H-indol-3-yl)pyrrolidine-2,5-dione]
- tumor growth [1]: significantly inhibited tumor growth
- tumor growth [2]: significantly inhibited tumor growth
- IC50 (Pim-1): 10 µM
- inhibition at 10 µM (Pim-1; 10 μM): 33%
- concentration that inhibits both basal and HGF-induced autophosphorylation of c-Met (c-Met): at least 30 nM
